For data set [1], the target named is T1, Human Neuropeptide Y2 Receptor (Homo sapiens, UniProt P49146).
T1 construct: purchased CHEMICON HTS066M
T1 sequence (P49146 1-381): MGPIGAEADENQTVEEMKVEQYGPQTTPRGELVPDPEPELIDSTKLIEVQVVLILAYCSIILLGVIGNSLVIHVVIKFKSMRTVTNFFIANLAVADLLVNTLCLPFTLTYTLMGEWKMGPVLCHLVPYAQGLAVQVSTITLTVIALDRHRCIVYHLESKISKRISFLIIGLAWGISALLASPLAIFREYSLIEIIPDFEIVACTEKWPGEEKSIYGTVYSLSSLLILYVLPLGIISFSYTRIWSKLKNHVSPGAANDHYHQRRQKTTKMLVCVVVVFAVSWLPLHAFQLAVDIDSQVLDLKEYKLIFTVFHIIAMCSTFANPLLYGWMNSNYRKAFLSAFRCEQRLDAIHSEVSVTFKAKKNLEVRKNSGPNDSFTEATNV
Description: Radioligand binding competition assay (RLB). To be noted: Table 3, 125I-PYY(1-36) competition; read-out: Ki. An outline of the steps: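 Competition binding used membranes expressing the receptor (0.5 μg protein/well) in 50 mM HEPES, 5 mM MgCl2, 1 mM CaCl2, pH 7.4 with 0.2% ovalbumin, incubated 2 h at room temperature with shaking. Bound radioligand was collected by filtration onto PEI-soaked GF/C filters and counted; IC50 from nonlinear sigmoidal fits.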

The next data set is described as follows: Solubility determination. To be noted: for Sol6: pH 6; for Sol7: pH 7. The essentials: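 Solubility is derived from the ratio of reversed-phase peak areas, filtered sample over a control dissolved at 1 mg/ml in 50% acetonitrile. Peptides are agitated for 2 hours at room temperature in 0.1 M sodium diphosphate at pH 6.4 or 7.0, aiming at 10 mg/ml.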

SMILES strings stand for the structures. A value given as a limit tells only on which side of the number the result lay.

For the compound `CC[C@H](C)[C@H](NC(=O)[C@H](CCC(=O)O)NC(=O)[C@H](CCC(=O)O)NC(=O)[C@@H]1CCCN1C(=O)[C@@H](NC(=O)[C@H](C)NC(=O)[C@H](CC(=O)O)NC(=O)[C@H](CCC(=O)O)NC(=O)[C@H](CCC(=O)O)NC(=O)[C@@H]1CCCN1C(=O)[C@H](CCCCNC(=O)CCCCCNC(=O)CC[C@H](NC(=O)CCCCCCCCCCCCCCCCC(=O)O)C(=O)O)NC(=O)[C@H](CCC(=O)O)NC(=O)[C@@H]1CCCN1C(=O)[C@H](C)NC(=O)CC(C)C)[C@@H](C)O)C(=O)N[C@@H](CCC(N)=O)C(=O)N[C@@H](CCCNC(=N)N)C(=O)N[C@@H](Cc1ccc(O)cc1)C(=O)N[C@@H](Cc1ccc(O)cc1)C(=O)N[C@@H](CC(C)C)C(=O)N[C@@H](CO)C(=O)N[C@@H](CC(C)C)C(=O)N[C@@H](CCCNC(=N)N)C(=O)N[C@@H](Cc1c[nH]cn1)C(=O)N[C@@H](Cc1ccc(O)cc1)C(=O)N[C@@H](Cc1ccc(O)cc1)C(=O)N[C@@H](CC(N)=O)C(=O)N[C@@H](Cc1c[nH]c2ccccc12)C(=O)N[C@@H](CC(C)C)C(=O)N[C@H](C(=O)N[C@@H](CCCNC(=N)N)C(=O)N[C@@H](CCC(N)=O)C(=O)N[C@@H](CCCNC(=N)N)C(=O)N[C@@H](Cc1ccc(O)cc1)C(N)=O)[C@@H](C)O` [Compound 97, N{alpha-4}-(3-methylbutanoyl)-N{epsilon-7}-(6-[(4S)-4-carboxy-4-(17-carboxyheptadecanamido)butanamido]hexanoyl)-[4A,7K,9E,13T,17I,18Q,22L,28Y,30W,31L]-hPYY(4-36)], the inhibitory constant (Ki) in data set [1] is 4.23 nM. Further, in the data set “Solubility determination”, the “Sol6” value was greater than 10.0 mg/mL and the “Sol7” value was greater than 10.0 mg/mL.

Turning to `CC[C@H](C)[C@H](NC(=O)[C@H](Cc1ccc(O)cc1)NC(=O)[C@H](Cc1ccc(O)cc1)NC(=O)[C@H](CCCNC(=N)N)NC(=O)[C@H](CCC(N)=O)NC(=O)[C@H](CC(C)C)NC(=O)[C@H](CCC(=O)O)NC(=O)[C@H](CCC(=O)O)NC(=O)[C@@H]1CCCN1C(=O)[C@@H](NC(=O)[C@H](C)NC(=O)[C@H](CC(=O)O)NC(=O)[C@H](C)NC(=O)[C@H](CCC(=O)O)NC(=O)[C@@H]1CCCN1C(=O)[C@H](CCCCNC(=O)CCCCCNC(=O)CC[C@H](NC(=O)CCCCCCCCCCCCCCCCC(=O)O)C(=O)O)NC(=O)[C@H](CCC(=O)O)NC(=O)[C@@H]1CCCN1C(=O)[C@H](C)NC(=O)CC(C)C)[C@@H](C)O)C(=O)N[C@@H](C)C(=O)N[C@@H](CC(C)C)C(=O)N[C@@H](CCCNC(=N)N)C(=O)N[C@@H](Cc1c[nH]cn1)C(=O)N[C@@H](Cc1ccc(O)cc1)C(=O)N[C@@H](Cc1ccc(O)cc1)C(=O)N[C@@H](CC(N)=O)C(=O)N[C@@H](Cc1c[nH]c2ccccc12)C(=O)N[C@@H](CC(C)C)C(=O)N[C@H](C(=O)N[C@@H](CCCNC(=N)N)C(=O)N[C@@H](CCC(N)=O)C(=O)N[C@@H](CCCNC(=N)N)C(=O)N[C@@H](Cc1ccc(O)cc1)C(N)=O)[C@@H](C)O` [Compound 100, N{alpha-4}-(3-methylbutanoyl)-N{epsilon-7}-(6-[(4S)-4-carboxy-4-(17-carboxyheptadecanamido)butanamido]hexanoyl)-[4A,7K,9E,10A,13T,18Q,22I,23A,28Y,30W,31L]-hPYY(4-36)], the Ki in data set [1] was found to be 1.01 nM. Also, in the data set “Solubility determination”, the “Sol6” value amounted to 9.8 mg/mL and the “Sol7” value was found to be 5.7 mg/mL.

For the compound `CC(C)CC(=O)N[C@@H](C)C(=O)N1CCC[C@H]1C(=O)N[C@@H](CCC(=O)O)C(=O)N[C@@H](CCCCNC(=O)CCCCCNC(=O)CC[C@H](NC(=O)CCCCCCCCCCCCCCCCC(=O)O)C(=O)O)C(=O)N1CCC[C@H]1C(=O)N[C@@H](CCC(=O)O)C(=O)N[C@@H](CCC(=O)O)C(=O)N[C@@H](CC(=O)O)C(=O)N[C@@H](C)C(=O)N[C@H](C(=O)N[C@@H](CC(C)C)C(=O)N[C@@H](CCC(=O)O)C(=O)N[C@@H](CCC(=O)O)C(=O)N[C@@H](CC(C)C)C(=O)N[C@@H](CCC(N)=O)C(=O)N[C@@H](CCCNC(=N)N)C(=O)N[C@@H](Cc1ccc(O)cc1)C(=O)N[C@@H](Cc1ccc(O)cc1)C(=O)N[C@H](C(=O)N[C@@H](CO)C(=O)N[C@@H](CC(C)C)C(=O)N[C@@H](CCCNC(=N)N)C(=O)N[C@@H](Cc1c[nH]cn1)C(=O)N[C@@H](Cc1ccc(O)cc1)C(=O)N[C@@H](Cc1ccc(O)cc1)C(=O)N[C@@H](CC(N)=O)C(=O)N[C@@H](Cc1c[nH]c2ccccc12)C(=O)N[C@@H](CC(C)C)C(=O)N[C@H](C(=O)N[C@@H](CCCNC(=N)N)C(=O)N[C@@H](CCC(N)=O)C(=O)N[C@@H](CCCNC(=N)N)C(=O)N[C@@H](Cc1ccc(O)cc1)C(N)=O)[C@@H](C)O)C(C)C)[C@@H](C)O` [Compound 102, N{alpha-4}-(3-methylbutanoyl)-N{epsilon-7}-(6-[(4S)-4-carboxy-4-(17-carboxyheptadecanamido)butanamido]hexanoyl)-[4A,7K,9E,13T,14L,18Q,22V,28Y,30W,31L]-hPYY(4-36)], the inhibition constant (Ki) in data set [1] turned out to be 7.15 nM. Also, in “Solubility determination”, the “Sol6” value was 10.0 mg/mL and the “Sol7” value was determined as 9.7 mg/mL.

Turning to `CC(C)CC(=O)N[C@@H](C)C(=O)N1CCC[C@H]1C(=O)N[C@@H](CCC(=O)O)C(=O)N[C@@H](CCCCNC(=O)CCCCCNC(=O)CC[C@H](NC(=O)CCCCCCCCCCCCCCCCC(=O)O)C(=O)O)C(=O)N1CCC[C@H]1C(=O)N[C@@H](CCC(=O)O)C(=O)N[C@@H](CCC(=O)O)C(=O)N[C@@H](CC(=O)O)C(=O)N[C@@H](C)C(=O)N[C@H](C(=O)N[C@@H](CCC(N)=O)C(=O)N[C@@H](CCC(=O)O)C(=O)N[C@@H](CCC(=O)O)C(=O)N[C@@H](CC(C)C)C(=O)N[C@@H](CCC(N)=O)C(=O)N[C@@H](CCCNC(=N)N)C(=O)N[C@@H](Cc1ccc(O)cc1)C(=O)N[C@@H](Cc1ccc(O)cc1)C(=O)N[C@H](C(=O)N[C@@H](CO)C(=O)N[C@@H](CC(C)C)C(=O)N[C@@H](CCCNC(=N)N)C(=O)N[C@@H](Cc1c[nH]cn1)C(=O)N[C@@H](Cc1ccc(O)cc1)C(=O)N[C@@H](Cc1ccc(O)cc1)C(=O)N[C@@H](CC(N)=O)C(=O)N[C@@H](Cc1c[nH]c2ccccc12)C(=O)N[C@@H](CC(C)C)C(=O)N[C@H](C(=O)N[C@@H](CCCNC(=N)N)C(=O)N[C@@H](CCC(N)=O)C(=O)N[C@@H](CCCNC(=N)N)C(=O)N[C@@H](Cc1ccc(O)cc1)C(N)=O)[C@@H](C)O)C(C)C)[C@@H](C)O` [Compound 105, N{alpha-4}-(3-methylbutanoyl)-N{epsilon-7}-(6-[(4S)-4-carboxy-4-(17-carboxyheptadecanamido)butanamido]hexanoyl)-[4A,7K,9E,13T,14Q,18Q,22V,28Y,30W,31L]-hPYY(4-36)], the Ki in data set [1] turned out to be 5.97 nM. In the data set “Solubility determination”, the “Sol6” value is greater than 10.0 mg/mL and the “Sol7” value worked out at 9.9 mg/mL.

For `CC(C)CC(=O)N[C@@H](C)C(=O)N1CCC[C@H]1C(=O)N[C@@H](CCC(=O)O)C(=O)N[C@@H](CCCCNC(=O)CCCCCNC(=O)CC[C@H](NC(=O)CCCCCCCCCCCCCCCCC(=O)O)C(=O)O)C(=O)N1CCC[C@H]1C(=O)N[C@@H](CCC(=O)O)C(=O)N[C@@H](CCC(=O)O)C(=O)N[C@@H](CC(=O)O)C(=O)N[C@@H](C)C(=O)N[C@@H](CCC(=O)O)C(=O)N1CCC[C@H]1C(=O)N[C@@H](CCC(=O)O)C(=O)N[C@@H](CCC(=O)O)C(=O)N[C@H](C(=O)N[C@@H](CCC(N)=O)C(=O)N[C@@H](CCCNC(=N)N)C(=O)N[C@@H](Cc1ccc(O)cc1)C(=O)N[C@@H](Cc1ccc(O)cc1)C(=O)N[C@H](C(=O)N[C@@H](CO)C(=O)N[C@@H](CC(C)C)C(=O)N[C@@H](CCCNC(=N)N)C(=O)N[C@@H](Cc1c[nH]cn1)C(=O)N[C@@H](Cc1ccc(O)cc1)C(=O)N[C@@H](Cc1ccc(O)cc1)C(=O)N[C@@H](CC(N)=O)C(=O)N[C@@H](Cc1c[nH]c2ccccc12)C(=O)N[C@@H](CC(C)C)C(=O)N[C@H](C(=O)N[C@@H](CCCNC(=N)N)C(=O)N[C@@H](CCC(N)=O)C(=O)N[C@@H](CCCNC(=N)N)C(=O)N[C@@H](Cc1ccc(O)cc1)C(N)=O)[C@@H](C)O)C(C)C)[C@@H](C)O` [Compound 107, N{alpha-4}-(3-methylbutanoyl)-N{epsilon-7}-(6-[(4S)-4-carboxy-4-(17-carboxyheptadecanamido)butanamido]hexanoyl)-[4A,7K,9E,13E,17T,18Q,22V,28Y,30W,31L]-hPYY(4-36)], the Ki in data set [1] was determined as 5.13 nM. In the data set “Solubility determination”, the “Sol6” value was 11.0 mg/mL and the “Sol7” value stood at 11.0 mg/mL.

What is called Ki is the dissociation constant of the complex between target and ligand, obtained from inhibition or displacement.

The values are drawn from patent publication US12391737B2, “Soluble NPY2 receptor agonists” (Boehringer Ingelheim International GmbH, priority 2020, dated 2025).
